Experimental data reported in patent US9474790B2, “Stable, protracted GLP-1/glucagon receptor co-agonists for medical use” (Novo Nordisk A/S, priority 2013, dated 2016).
Numbered stars: 1 amine (or outer) side, 2 acyl side, 3 side chain; on linkers, the order of the positions; unused ones are H or OH. Square brackets hold non-standard residues; d marks the D form. Side chains are listed from the residue outwards. Peptide text beside a SMILES is read from it. * marks the point of attachment. C18 diacid = O=C(O)CCCCCCCCCCCCCCCCC(=O)*; γGlu = O=C(O)[C@H](CCC(=O)[*:2])N[*:1]; AEEA = NCCOCCOCC(=O)O; Aib = CC(C)(N)C(=O)O

Columns and labels:
[1] = Chemical stability assessment by RP-UPLC; format: physicochemical; settings: 333 μM, 8 mM phosphate buffer pH 7.3, 37° C. vs 5° C.
Description: The purpose of this assay was to assess the chemical stability of the glucagon derivatives of the invention in aqueous solutions.
Chemical stability of glucagon derivatives or analogues was investigated by RP-UPLC separation and UV detection. Lyophilized samples were dissolved in a 8 mM Phosphate buffer pH 8.6, followed by adjustment to pH 7.3.using HCl to a final concentration of 333 μM. Samples were incubated for 14 days at 5° C. and 37° C. followed by RP-UPLC analysis. Purity was defined as the area percentage of the main peak in relation to the total area of all integrated peaks in each chromatogram. Purity loss after 14 days at 37° C. was determined as the difference in purity between the samples incubated at 5° C. and 37° C., divided by the purity of the sample after incubation for 14 days at 5° C.
RP-UPLC analysis was performed using a Waters BEH130 2.1 mm×150 mm, 1.7 μm column operated at 50° C. and a flow rate of 0.4 mL/min using a mobile phase system consisting of A: 0.05% TFA in MQ-water B: 0.05% TFA in Acetonitrile. UV-detection was performed at 215 nm. The typical gradient profile used for most of the samples is shown below.
For some individual derivatives or analogues eluting at substantially different retention times compared with the majority of derivatives or analogues, some adjustments to the gradient profile were made to better enable purity assessment comparison across samples. The data confirmed the improved chemical stability of the glucagon derivatives of this invention.

[2] = Thioflavin T (ThT) fibrillation assay for physical stability; format: physicochemical; settings: 250 μM in 10 mM HEPES buffer, pH 7.5, 37° C., shaking 960 rpm
Method in brief: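 Fibrillation was followed by ThT (1 μM) fluorescence every 20 min, 444/485 nm, for 250 μM peptide in 10 mM HEPES pH 7.5 shaken at 960 rpm, 37° C. Lag time (t0−2τ) and apparent rate constant (1/τ) come from a sigmoidal fit. Recovery is % of initial concentration remaining soluble after centrifugation and filtration (RP-HPLC).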

human GLP-1 receptor [3] = target: T1, human GLP-1 receptor (Homo sapiens, UniProt P43220); assay: GLP-1 receptor binding, 125I-GLP-1 displacement SPA on isolated membranes; settings: displacement of 125I-GLP-1 from membranes; read-out: IC50 GLP-1R
T1 construct: expressed in transfected cells; host or cells: BHK cells (parent BHKTS13), clone FCW467-12A/KZ10-1, with CRE luciferase
Method in brief: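 Test derivatives, serially diluted, competed with 125I-GLP-1(7-36)NH2 for the human GLP-1 receptor on BHK membranes, read by WGA-bead scintillation proximity after 2 h at 30°C, pH 7.4 HEPES/EGTA/MgCl2 buffer. Final serum albumin was either ≤0.001% or 2.0%; IC50 from non-linear fit.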

human GLP-1 receptor [4] = target: T1, human GLP-1 receptor; assay: GLP-1 receptor potency, CRE luciferase reporter gene assay in BHK cells; format: cell-based; settings: BHK cells expressing human GLP-1 receptor, read-out: EC50 GLP-1R
Method in brief: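 Potency as cAMP-driven firefly luciferase signal after 3 h, 37° C exposure to 10-fold dilutions (final 1×10EE-13–1×10EE-6 M). Stable hGLP-1R/CRE-luc BHK clone, 5×10EE3 cells/well, medium containing 2% ovalbumin and 0.2% Pluronic F-68; EC50 (pM) from variable-slope non-linear regression.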

T1 sequence (P43220 24-463): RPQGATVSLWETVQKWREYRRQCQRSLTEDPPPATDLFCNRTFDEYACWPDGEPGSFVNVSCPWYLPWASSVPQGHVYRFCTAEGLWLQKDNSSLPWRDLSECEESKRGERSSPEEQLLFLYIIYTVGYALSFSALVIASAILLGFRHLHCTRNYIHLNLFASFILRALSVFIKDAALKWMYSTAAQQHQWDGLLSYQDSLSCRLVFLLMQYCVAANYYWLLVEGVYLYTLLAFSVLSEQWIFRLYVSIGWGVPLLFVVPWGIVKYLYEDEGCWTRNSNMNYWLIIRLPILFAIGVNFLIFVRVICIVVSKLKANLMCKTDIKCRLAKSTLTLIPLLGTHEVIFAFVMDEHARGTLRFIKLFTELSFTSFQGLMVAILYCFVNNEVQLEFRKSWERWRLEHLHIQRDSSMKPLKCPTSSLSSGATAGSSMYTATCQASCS

Compound	Purity loss; 14 days at 37° C. [1] [%]	THT assay Lag time (Ex. 76) [2] [h]	IC50 (human GLP-1 receptor [3]) [nM]	EC50 (human GLP-1 receptor [4]) [nM]
CC(C)C[C@H](NC(=O)[C@H](Cc1ccc(O)cc1)NC(=O)[C@H](CCCCN)NC(=O)[C@H](CO)NC(=O)[C@H](CC(C)C)NC(=O)[C@H](CC(=O)O)NC(=O)[C@H](CO)NC(=O)[C@@H](NC(=O)[C@H](Cc1ccccc1)NC(=O)[C@@H](NC(=O)CNC(=O)[C@H](CCC(N)=O)NC(=O)C(C)(C)NC(=O)[C@@H](N)Cc1c[nH]cn1)[C@@H](C)O)[C@@H](C)O)C(=O)N[C@@H](CCC(=O)O)C(=O)N[C@@H](CO)C(=O)N[C@@H](CCCCN)C(=O)N[C@@H](CCCNC(=N)N)C(=O)N[C@@H](C)C(=O)N[C@@H](CCCNC(=N)N)C(=O)N[C@@H](CCC(=O)O)C(=O)N[C@@H](Cc1ccccc1)C(=O)N[C@H](C(=O)N[C@@H](CCC(N)=O)C(=O)N[C@@H](Cc1c[nH]c2ccccc12)C(=O)N[C@@H](CC(C)C)C(=O)N[C@@H](CC(C)C)C(=O)N[C@@H](CCCCNC(=O)CC[C@H](NC(=O)CC[C@H](NC(=O)COCCOCCNC(=O)COCCOCCNC(=O)CC[C@H](NC(=O)CCCCCCCCCCCCCCCCC(=O)O)C(=O)O)C(=O)O)C(=O)O)C(=O)N[C@H](C(N)=O)[C@@H](C)O)C(C)C [Example 22, N^ε29-[(4S)-4-carboxy-4-[[(4S)-4-carboxy-4-[[2-[2-[2-[[2-[2-[2-[[(4S)-4-carboxy-4-(17-carboxyheptadecanoylamino)butanoyl]amino]ethoxy]ethoxy]acetyl]amino]ethoxy]ethoxy]acetyl]amino]butanoyl]amino]butanoyl]-[Aib2,Leu10,Glu15,Lys17,Arg20,Glu21,Leu27,Lys28]-Glucagon amide] (H-H[Aib]QGTFTSDLSKYLESKRAREFVQWLLK([γGlu-γGlu-AEEA-AEEA-γGlu-C18 diacid])T-NH2; N-terminus assumed)	1	45		
CC(C)C[C@H](NC(=O)[C@H](Cc1ccc(O)cc1)NC(=O)[C@H](CCCCN)NC(=O)[C@H](CO)NC(=O)[C@H](CC(C)C)NC(=O)[C@H](CC(=O)O)NC(=O)[C@H](CO)NC(=O)[C@@H](NC(=O)[C@H](Cc1ccccc1)NC(=O)[C@@H](NC(=O)CNC(=O)[C@H](CCC(N)=O)NC(=O)C(C)(C)NC(=O)[C@@H](N)Cc1c[nH]cn1)[C@@H](C)O)[C@@H](C)O)C(=O)N[C@@H](CCC(=O)O)C(=O)N[C@@H](CO)C(=O)N[C@@H](CCCNC(=N)N)C(=O)N[C@@H](CCCNC(=N)N)C(=O)N[C@@H](C)C(=O)N[C@@H](CCCNC(=N)N)C(=O)N[C@@H](CC(=O)O)C(=O)N[C@@H](Cc1ccccc1)C(=O)N[C@H](C(=O)N[C@@H](CCC(N)=O)C(=O)N[C@@H](Cc1c[nH]c2ccccc12)C(=O)N[C@@H](CC(C)C)C(=O)N[C@@H](CC(C)C)C(=O)N[C@@H](CCCCNC(=O)COCCOCCNC(=O)COCCOCCNC(=O)CC[C@H](NC(=O)CC[C@H](NC(=O)CC[C@H](NC(=O)CCCCCCCCCCCCCCCCC(=O)O)C(=O)O)C(=O)O)C(=O)O)C(=O)N[C@H](C(N)=O)[C@@H](C)O)C(C)C [Example 57, N^ε28-[2-[2-[2-[(2-[2-[2-[[(4S)-4-carboxy-4-[[(4S)-4-carboxy-4-[[(4S)-4-carboxy-4-(17-carboxyheptadecanoylamino)butanoyl]amino]butanoyl]amino]butanoyl]amino]ethoxy]ethoxy]acetyl]amino]ethoxy]ethoxy]acetyl]-[Aib2,Leu10,Glu15,Arg20,Leu27,Lys28]-Glucagon amide] (H-H[Aib]QGTFTSDLSKYLESRRARDFVQWLLK([AEEA-AEEA-γGlu-γGlu-γGlu-C18 diacid])T-NH2; N-terminus assumed)			0.2	0.003
CC(C)C[C@H](NC(=O)[C@H](Cc1ccc(O)cc1)NC(=O)[C@H](CCCNC(=N)N)NC(=O)[C@H](CO)NC(=O)[C@H](CC(C)C)NC(=O)[C@H](CC(=O)O)NC(=O)[C@H](CO)NC(=O)[C@@H](NC(=O)[C@H](Cc1ccccc1)NC(=O)[C@@H](NC(=O)CNC(=O)[C@H](CCC(N)=O)NC(=O)C(C)(C)NC(=O)[C@@H](N)Cc1c[nH]cn1)[C@@H](C)O)[C@@H](C)O)C(=O)N[C@@H](CC(=O)O)C(=O)N[C@@H](C)C(=O)N[C@@H](CCCNC(=N)N)C(=O)N[C@@H](CCCNC(=N)N)C(=O)N[C@@H](C)C(=O)N[C@@H](CCC(N)=O)C(=O)N[C@@H](CC(=O)O)C(=O)N[C@@H](Cc1ccccc1)C(=O)N[C@H](C(=O)N[C@@H](CCC(N)=O)C(=O)N[C@@H](Cc1c[nH]c2ccccc12)C(=O)N[C@@H](CC(C)C)C(=O)N[C@@H](CC(C)C)C(=O)N[C@@H](CCCCNC(=O)COCCOCCNC(=O)COCCOCCNC(=O)CC[C@H](NC(=O)CC[C@H](NC(=O)CC[C@H](NC(=O)CCCCCCCCCCCCCCCCC(=O)O)C(=O)O)C(=O)O)C(=O)O)C(=O)N[C@H](C(N)=O)[C@@H](C)O)C(C)C [Example 64, N^ε28-[2-[2-[2-[[2-[2-[2-[[(4S)-4-carboxy-4-[[(4S)-4-carboxy-4-[[(4S)-4-carboxy-4-(17-carboxyheptadecanoylamino)butanoyl]amino]butanoyl]amino]butanoyl]amino]ethoxy]ethoxy]acetyl]amino]ethoxy]ethoxy]acetyl]-[Aib2,Leu10,Arg12,Ala16,Leu27,Lys28]-Glucagon amide] (H-H[Aib]QGTFTSDLSRYLDARRAQDFVQWLLK([AEEA-AEEA-γGlu-γGlu-γGlu-C18 diacid])T-NH2; N-terminus assumed)			0.9	0.003
